#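 Each compound was tested at five concentrations against cells in 96-well plates for 48 hours. GI50 is the concentration that inhibits growth by half. TGI denotes the concentration required for complete inhibition of growth.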
# Columns and labels:
# Experiment in all cases: DTP human tumour cell line panel, 48 h
# MOLT-4 leukemia = system: MOLT-4 leukemia
# HOP-62 NSCLC = system: HOP-62 NSCLC
# T-47D breast = system: T-47D breast
# TK-10 renal = system: TK-10 renal
# SW-620 colon = system: SW-620 colon
# OVCAR-3 ovarian = system: OVCAR-3 ovarian
# SF-295 CNS = system: SF-295 CNS
# LOX IMVI melanoma = system: LOX IMVI melanoma
# UACC-62 melanoma = system: UACC-62 melanoma
# SF-539 CNS = system: SF-539 CNS
# SR leukemia = system: SR leukemia
# HL-60(TB) leukemia = system: HL-60(TB) leukemia
# CAKI-1 renal = system: CAKI-1 renal
# UO-31 renal = system: UO-31 renal
# HCT-116 colon = system: HCT-116 colon
# SNB-75 CNS = system: SNB-75 CNS
# UACC-257 melanoma = system: UACC-257 melanoma
# PC-3 prostate = system: PC-3 prostate
# OVCAR-8 ovarian = system: OVCAR-8 ovarian
# MDA-MB-435 = system: MDA-MB-435
# NCI-H226 lung = system: NCI-H226 lung
# SK-OV-3 ovarian = system: SK-OV-3 ovarian
# M14 melanoma = system: M14 melanoma
# 786-0 renal = system: 786-0 renal
# RPMI-8226 leukemia = system: RPMI-8226 leukemia
# IGROV1 ovarian = system: IGROV1 ovarian
# MDA-MB-231 breast = system: MDA-MB-231 breast
# SN12C renal = system: SN12C renal
# K-562 leukemia = system: K-562 leukemia
# KM12 colon = system: KM12 colon
# RXF 393 renal = system: RXF 393 renal
# EKVX NSCLC = system: EKVX NSCLC
# NCI-H23 lung = system: NCI-H23 lung
# HOP-92 NSCLC = system: HOP-92 NSCLC
# HT29 colon = system: HT29 colon
# SF-268 CNS = system: SF-268 CNS
# SNB-19 CNS = system: SNB-19 CNS
# SK-MEL-2 melanoma = system: SK-MEL-2 melanoma
# OVCAR-4 ovarian = system: OVCAR-4 ovarian
# A549 NSCLC = system: A549 NSCLC
# NCI-H522 lung = system: NCI-H522 lung
# HCT-15 colon = system: HCT-15 colon
# SK-MEL-28 melanoma = system: SK-MEL-28 melanoma
# A498 renal = system: A498 renal
# OVCAR-5 ovarian = system: OVCAR-5 ovarian
# MALME-3M melanoma = system: MALME-3M melanoma
# DU-145 prostate = system: DU-145 prostate
# ACHN renal = system: ACHN renal
# NCI/ADR-RES ovarian = system: NCI/ADR-RES ovarian
# COLO 205 colon = system: COLO 205 colon
# CCRF-CEM leukemia = system: CCRF-CEM leukemia
# BT-549 breast = system: BT-549 breast
# SK-MEL-5 melanoma = system: SK-MEL-5 melanoma
# NCI-H460 lung = system: NCI-H460 lung
# MCF7 breast = system: MCF7 breast
# HCC-2998 colon = system: HCC-2998 colon
# HS 578T breast = system: HS 578T breast
# U251 CNS = system: U251 CNS
structure (smiles),measurement,setting,value
O=C(NNc1nc2cc(F)cc(F)c2n2cccc12)c1ncccn1,GI50,MOLT-4 leukemia,613 nM
same,TGI,MOLT-4 leukemia,> 30000 nM
same,GI50,HOP-62 NSCLC,226 nM
same,TGI,HOP-62 NSCLC,22400 nM
same,GI50,T-47D breast,1060 nM
same,TGI,T-47D breast,22700 nM
same,GI50,TK-10 renal,427 nM
same,TGI,TK-10 renal,8020 nM
same,GI50,SW-620 colon,1010 nM
same,TGI,SW-620 colon,> 30000 nM
same,GI50,OVCAR-3 ovarian,730 nM
same,TGI,OVCAR-3 ovarian,> 30000 nM
same,GI50,SF-295 CNS,176 nM
same,TGI,SF-295 CNS,4990 nM
same,GI50,LOX IMVI melanoma,487 nM
same,TGI,LOX IMVI melanoma,15800 nM
same,GI50,UACC-62 melanoma,377 nM
same,TGI,UACC-62 melanoma,> 9210 nM
same,GI50,SF-539 CNS,728 nM
same,TGI,SF-539 CNS,> 16600 nM
same,GI50,SR leukemia,221 nM
same,TGI,SR leukemia,> 30000 nM
same,GI50,HL-60(TB) leukemia,803 nM
same,TGI,HL-60(TB) leukemia,5070 nM
same,GI50,CAKI-1 renal,336 nM
same,TGI,CAKI-1 renal,9500 nM
same,GI50,UO-31 renal,116 nM
same,TGI,UO-31 renal,3670 nM
same,GI50,HCT-116 colon,341 nM
same,TGI,HCT-116 colon,> 21100 nM
same,GI50,SNB-75 CNS,793 nM
same,TGI,SNB-75 CNS,> 27600 nM
same,GI50,UACC-257 melanoma,1180 nM
same,TGI,UACC-257 melanoma,15700 nM
same,GI50,PC-3 prostate,786 nM
same,TGI,PC-3 prostate,> 26800 nM
same,GI50,OVCAR-8 ovarian,509 nM
same,TGI,OVCAR-8 ovarian,> 30000 nM
same,GI50,MDA-MB-435,1240 nM
same,TGI,MDA-MB-435,> 30000 nM
same,GI50,NCI-H226 lung,585 nM
same,TGI,NCI-H226 lung,6670 nM
same,GI50,SK-OV-3 ovarian,443 nM
same,TGI,SK-OV-3 ovarian,9810 nM
same,GI50,M14 melanoma,390 nM
same,TGI,M14 melanoma,5620 nM
same,GI50,786-0 renal,901 nM
same,TGI,786-0 renal,> 14800 nM
same,GI50,RPMI-8226 leukemia,1180 nM
same,TGI,RPMI-8226 leukemia,> 30000 nM
same,GI50,IGROV1 ovarian,420 nM
same,TGI,IGROV1 ovarian,22400 nM
same,GI50,MDA-MB-231 breast,1220 nM
same,TGI,MDA-MB-231 breast,> 25300 nM
same,GI50,SN12C renal,1200 nM
same,TGI,SN12C renal,> 30000 nM
same,GI50,K-562 leukemia,1000 nM
same,TGI,K-562 leukemia,> 30000 nM
same,GI50,KM12 colon,537 nM
same,TGI,KM12 colon,> 30000 nM
same,GI50,RXF 393 renal,1310 nM
same,TGI,RXF 393 renal,5640 nM
same,GI50,EKVX NSCLC,409 nM
same,TGI,EKVX NSCLC,8710 nM
same,GI50,NCI-H23 lung,1350 nM
same,TGI,NCI-H23 lung,> 30000 nM
same,GI50,HOP-92 NSCLC,1240 nM
same,TGI,HOP-92 NSCLC,20700 nM
same,GI50,HT29 colon,940 nM
same,TGI,HT29 colon,> 30000 nM
same,GI50,SF-268 CNS,521 nM
same,TGI,SF-268 CNS,> 30000 nM
same,GI50,SNB-19 CNS,688 nM
same,TGI,SNB-19 CNS,> 30000 nM
same,GI50,SK-MEL-2 melanoma,2950 nM
same,TGI,SK-MEL-2 melanoma,30000 nM
same,GI50,OVCAR-4 ovarian,801 nM
same,TGI,OVCAR-4 ovarian,> 23700 nM
same,GI50,A549 NSCLC,437 nM
same,TGI,A549 NSCLC,8670 nM
same,GI50,NCI-H522 lung,1030 nM
same,TGI,NCI-H522 lung,> 17000 nM
same,GI50,HCT-15 colon,121 nM
same,TGI,HCT-15 colon,6210 nM
same,GI50,SK-MEL-28 melanoma,682 nM
same,TGI,SK-MEL-28 melanoma,> 30000 nM
same,GI50,A498 renal,1200 nM
same,TGI,A498 renal,5850 nM
same,GI50,OVCAR-5 ovarian,1180 nM
same,TGI,OVCAR-5 ovarian,> 30000 nM
same,GI50,MALME-3M melanoma,1050 nM
same,TGI,MALME-3M melanoma,19600 nM
same,GI50,DU-145 prostate,751 nM
same,TGI,DU-145 prostate,> 30000 nM
same,GI50,ACHN renal,164 nM
same,TGI,ACHN renal,3830 nM
same,GI50,NCI/ADR-RES ovarian,218 nM
same,TGI,NCI/ADR-RES ovarian,10300 nM
same,GI50,COLO 205 colon,773 nM
same,TGI,COLO 205 colon,> 30000 nM
same,GI50,CCRF-CEM leukemia,327 nM
same,TGI,CCRF-CEM leukemia,> 30000 nM
same,GI50,BT-549 breast,1040 nM
same,TGI,BT-549 breast,17000 nM
same,GI50,SK-MEL-5 melanoma,584 nM
same,TGI,SK-MEL-5 melanoma,2860 nM
same,GI50,NCI-H460 lung,212 nM
same,TGI,NCI-H460 lung,3900 nM
same,GI50,MCF7 breast,862 nM
same,TGI,MCF7 breast,10700 nM
same,GI50,HCC-2998 colon,863 nM
same,TGI,HCC-2998 colon,> 30000 nM
same,GI50,HS 578T breast,3180 nM
same,TGI,HS 578T breast,> 28600 nM
same,GI50,U251 CNS,282 nM
same,TGI,U251 CNS,> 19100 nM

# — PubChem BioAssay (NCI)
